Patent US20210348119A1, “COMPOSITIONS AND METHODS FOR CELL CULTURE” (The United States of America as Represented By The …, priority 2018, published 2021)
Several values for one entry are separate records, joined by “and”; a condition that tells them apart may be missing. Equal values may be shown once. Read-outs that look alike come from different tables or passages of the source. Each block holds one compound with its values, some of them ahead of it.

What was measured:
[1] = system: H9 cells; assay: qHTS for survival of dissociated H9 cells (CellTiter-Glo, 24 hours after seeding); assay type: cell-based, human
Source text: FIG. 2 schematically illustrates qHTS procedure.
All the screed compounds were received pre-plated at the pre-determined concentrations. […] Curve classification is explained in Huang et al. “Chemical genomics profiling of environmental chemical modulation of human nuclear receptors” Environ. Health. Perspect.

[2] = system: H9 cells; assay: Combinatorial matrix screening for synergistic effects on cell survival; assay type: cell-based, human; details: 10×10 matrix, normalized to 10 μM Y-27632
Procedure: Combinatorial matrix screening was performed to identify the compounds with synergistic effects on cell survival. Focusing on the compounds with different mechanisms of action, 29 compounds were selected for combinational matrix screening, resulting in 812 sets of 10×10 checkerboard matrix experiments (data not shown), four of which are illustrated in FIG. 9. The concentrations of the compounds for combinational matrix screening were optimized based on the slope and potency (AC50) derived from single-agent qHTS dose-response curves, so that the matrix screen covered a wide range of biological effect observed in the cell viability assay. […] The numerals in each 10×10 matrix show the maximum survival achieved with the indicated combinations or single agents. The maximum survival achieved by each pair of compounds is represented by the highest numbers in each 10×10 matrix, the examples of which are shown in FIG. 9. The bottom matrices depict the synergy matrix calculated using highest-single agent (HSA) model. The HSA synergy assesses the pro-survival benefit of compound combination compared to single agent alone, which was computed as the difference between cell survival out of combination and that from the best single agent at each tested concentration. Synergy is defined as the difference between the combination and max response with single agent (synergy=combination max (single agent A, single agent B).

[3] = system: H9 cells; assay: Embryoid body formation assays; details: AggreWell plates, 24 hours after seeding
Procedure: In one series of experiments, H9 cells were dissociated with Accutase. […] Embryoid body (EB) formation was examined 24 hours after cell seeding.
In a different experimental approach (data not shown), a defined number of H9 cells was plated into AggreWell™ plates (StemCell Technologies, Vancouver, Canada) to generate single EBs per well. Embryoid body (EB) formation was examined 24 hours after cell seeding.
Pluripotent stem cells (WA09, also called H9 cells, obtained from WiCell, Madison, Wis.) dissociated with Accutase were seeded into AggreWell™ plates (StemCell Technologies, Vancouver, Canada) to generate EBs. Bright field images were taken 24 hours after seeding.
H9 cells dissociated with Accutase were seeded into 96-well plates (ultra-low attachment) to generated EBs. After 24 hours, calcein (green staining, live cells) and PI (red staining, dead cells) were added to the cell culture medium to visualize live and dead cells in the wells.

[4] = system: H9 cells; assay: Survival and attachment of single-cell dissociated cells (CellTiter-Glo, time-lapse imaging); assay type: cell-based, human; details: 50 nM Chroman 1, 5 μM Emricasan; vitronectin-coated plates, over 24 hours
Procedure: CellTiter-Glo® assay was used to quantify viable […] cells 24 hours post-plating (100,000 cells/[…]). […] Cellular stress was already apparent 20 minutes after plating in the presence of Emricasan, which ultimately led to dead cells at 24 hours.

[5] = system: human kinases; assay: Kinase profiling, HotSpot Kinase Assay; assay type: biochemical; details: Y-27632 at 10 μM, Chroman 1 at 50 nM
Source text: The results of kinase profiling experiments are illustrated in FIG. 8. […] The phylogenic trees of human kinases were generated based on a neighbor-joining tree via ClustalW software derived from multiple protein sequence alignment of human kinase domains (Manning et al., “The protein kinase complement of the human genome” Science 298:1912-1934 (2002)).

[6] = system: hESCs (H9); assay: Western blot of hESCs after passaging; assay type: cell-based, human; details: 3 hours post-passage
Source text: GAPDH was used as a loading control and house-keeping protein control.
Higher observed levels of phosphorylated CHK2 on threonine 68 indicated cell cycle arrest.

[7] = system: H9 cells; assay: Cell survival after routine passage (caspase 3/7 imaging, CTG); assay type: cell-based, human; details: 100,000 cells per cm^2; 10 μM Y-27632, 50 nM Chroman 1, 5 μM Emricasan
[8] = system: OCT4 expressing cells; assay: Microscopy of stress mechanisms during cell passaging; assay type: cell-based; details: 3 hours post-plating
Procedure: The scale bars shown are 10 μm. Upper panel illustrates confocal microscopic analysis of the lamin B1-GFP iPSC reporter line (Allen Insitute for Cell Science, Seattle, Wash.) displaying dramatic morphological differences in nuclear shape during cell passaging (30 min after plating). […] Lower panel illustrates dramatic cytoskeletal differences during cell passaging (3 hours post-plating), as measured by immunocytochemistry against actin and myosin.

[9] = system: H9 cells; assay: Propidium iodide dead cell count of dissociated H9 cells; assay type: cell-based, human; details: 10 μM Y-27632 vs 50 nM Chroman 1; 12 hours after plating; EDTA or Accutase dissociation
Procedure: H9 cells were dissociated with 0.5 mM ethylenediaminetetraacetic acid (EDTA) or Accutase (enzymatic dissociation) according to standard procedures and seeded into vitronectin coated 6-well plates. Phase-contrast and fluorescence microscopy digital images were taken 12 hours after cell plating (data not shown). To generate the fluorescence microscopy images, live cells were stained with Calcein (0.5 μg/ML; Thermo Fisher Scientific, catalog number: C34852), and dead cells were stained with propidium iodide (PI; 500 nM; Thermo Fisher Scientific, catalog number: P3566). For quantitative analysis, the cells were counted using an automated cell counter (Cellometer Auto 2000, Nexcelom). The results of PI staining are illustrated in the bar graph shown in the right panel of FIG. 5.

[10] = H9 cell survival normalized to 10 μM Y-27632 (taken to be 100%)
[11] = H9 cell survival, normalized to 10 μM Y-27632
[12] = Homo sapiens, H9, 24 h; read-out: Efficacy (activity range between predicted activities at zero and infinite doses, Hill equation)
[13] = Homo sapiens, H9, 24 h; read-out: Max (maximum activity value from all tested concentrations)
[14] = Homo sapiens; H9 cell survival, CellTiter-Glo 24 hours after seeding; read-out: AC50 (concentration at 50% efficacy)
[15] = H9 cell survival, CellTiter-Glo 24 hours after seeding; read-out: AC50 (concentration at 50% efficacy)
[16] = Homo sapiens, H9, 24 h, H9 cell survival normalized to 10 μM Y-27632 (taken to be 100%); read-out: Max (maximum activity value from all tested concentrations)
[17] = Homo sapiens, H9, 24 h, H9 cell survival, CellTiter-Glo 24 hours after seeding; read-out: AC50 (concentration at 50% efficacy)
[18] = Homo sapiens, H9, 24 h, H9 cell survival, normalized to 10 μM Y-27632; read-out: Efficacy (activity range between predicted activities at zero and infinite doses, Hill equation)

Compound: Cc1ccc2c(c1)C(=O)C1(O)CCN(c3ccccc3)C1=N2 (single isomer, unassigned; (-)) [(−)-Blebbistatin]
Max (maximum activity value from all tested concentrations) [1, 10]: 90.71% and 107.8% | Efficacy (activity range between predicted activities at zero and infinite doses, Hill equation) [1, 11]: 105 and 96 | synergy with Chroman 1 on cell survival (HSA model) [2]: lacking synergy

Compound: C[C@H](NC(=O)C(=O)Nc1ccccc1C(C)(C)C)C(=O)N[C@@H](CC(=O)O)C(=O)COc1c(F)c(F)cc(F)c1F [Emricasan, 3-(2-(2-tert-butylphenylaminooxalyl)aminopropionylamino)-4-oxo-5-(2,3,5,6-tetrafluorophenoxy)pentanoic acid]
Emax [1, 12]: 95.8% | Emax [1, 13]: 76.4% | AC50 [1, 14]: 33.2 µM | single EB formation and dead cells [3]: did not result in proper cell aggregation and EB formation | cell attachment and survival in time-lapse imaging [4]: not sufficient to improve cell viability beyond 24 hours | synergy with Chroman 1 on cell survival (HSA model) [2]: synergistic with Chroman 1

Compound: CC(C)[C@H](NC(=O)c1ccc2ccccc2n1)C(=O)N[C@@H](CC(=O)O)C(=O)COc1c(F)cccc1F [Q-VD-OPh hydrate]
Max (maximum activity value from all tested concentrations) [1, 10]: 93.54% | AC50 [1, 15]: 1.17 µM | Efficacy (activity range between predicted activities at zero and infinite doses, Hill equation) [1, 11]: 85.9 | synergy with Chroman 1 on cell survival (HSA model) [2]: synergistic with Chroman 1

Compound: Cc1cnc(Nc2ccc(OCCN3CCCC3)cc2)nc1Nc1cccc(S(=O)(=O)NC(C)(C)C)c1 [TG-101348]
Emax [1, 16]: 55.1% | AC50 [1, 17]: 33.2 µM | Emax [1, 18]: 67.3%

Compound: O=C(NCc1ccccc1)c1csc(Nc2ccncn2)n1 [Thiazovivin]
Max (maximum activity value from all tested concentrations) [1, 10]: 88.3% | AC50 [1, 15]: 0.414 µM | Efficacy (activity range between predicted activities at zero and infinite doses, Hill equation) [1, 11]: 80.6

Compound: C=C(NC(=O)C(=C)NC(=O)c1csc(C2=N[C@@H]3c4csc(n4)[C@H]4NC(=O)c5csc(n5)[C@H]([C@](C)(O)[C@@H](C)O)NC(=O)[C@H]5CSC(=N5)/C(=C/C)NC(=O)[C@H]([C@@H](C)O)NC(=O)c5csc(n5)[C@]3(CC2)NC(=O)[C@H](C)NC(=O)C(=C)NC(=O)[C@H](C)NC(=O)[C@H]([C@@H](C)CC)N[C@@H]2C=Cc3c([C@H](C)O)cc(nc3[C@H]2O)C(=O)O[C@@H]4C)n1)C(N)=O [Thiostrepton from Streptomyces azureus, Thiostrepton]
AC50 ([1]; Homo sapiens, H9, 24 h, read-out: AC50 (concentration at 50% efficacy)): 14.7 µM | Emax ([1]; Homo sapiens, H9, 24 h, read-out: Efficacy (activity range between predicted activities at zero and infinite doses, Hill equation)): 30.2% | Emax ([1]; Homo sapiens, H9, 24 h, read-out: Max (maximum activity value from all tested concentrations)): 28.4%

Compound: Nc1nc2nc[nH]c2c(=S)[nH]1 [Tioguanine]
Emax [1, 16]: 21.3% | Emax [1, 18]: 0%

Compound: CCC[C@@]1(CCc2ccccc2)CC(O)=C([C@H](CC)c2cccc(NS(=O)(=O)c3ccc(C(F)(F)F)cn3)c2)C(=O)O1 [Tipranavir]
Emax [1, 12]: 26.5% | Emax [1, 13]: 21.8% | AC50 [1, 14]: 26.1 µM

Compound: CCC(=O)N1CCN(c2ccc(-n3c(=O)ccc4cnc5ccc(-c6cnc7ccccc7c6)cc5c43)cc2C(F)(F)F)CC1 [Torin-1]
Max (maximum activity value from all tested concentrations) [1, 10]: 27.66% | AC50 [1, 15]: 10.5 µM | Efficacy (activity range between predicted activities at zero and infinite doses, Hill equation) [1, 11]: 31.2

Compound: CN1CCN(Cc2ccc(-c3cnc4[nH]cc(-c5ccc6[nH]ccc6c5)c4c3)cc2)CC1 [URMC-099]
Emax [1, 16]: 27.1% | AC50 [1, 17]: 5.21 µM | Emax [1, 18]: 33.6%

Compound: C[C@H]1[C@H](C)CC[C@]2(C(=O)O)CC[C@]3(C)C(=CC[C@@H]4[C@@]5(C)CC[C@H](O)C(C)(C)[C@@H]5CC[C@]43C)[C@H]12 [URSOLIC ACID]
Emax [1, 16]: 22.3% | AC50 [1, 17]: 0.521 µM | Emax [1, 18]: 11.7%

Compound: N#Cc1cc(F)cc(-c2nc(-c3ccccn3)no2)c1 [VU 0285683]
Max (maximum activity value from all tested concentrations) [1, 10]: 21.28% | Efficacy (activity range between predicted activities at zero and infinite doses, Hill equation) [1, 11]: 0

Compound: O=C(Nc1ccc(-c2ccnc(Nc3ccc(N4CCOCC4)cc3)n2)cc1)[C@@H]1CCCN1 [XL-19]
Max (maximum activity value from all tested concentrations) [1, 10]: 29.98% | AC50 [1, 15]: 23.3 µM | Efficacy (activity range between predicted activities at zero and infinite doses, Hill equation) [1, 11]: 35.5

primary targets [5]: ROCK1 and ROCK2
Compound: C[C@@H](N)[C@H]1CC[C@H](C(=O)Nc2ccncc2)CC1 [Y-27632]
specificity / off-target inhibition ([5]; under 10% of original activity deemed significant): a number of off-targets, including PKCeta (also known as PKC η or PRKCH), PKCepsilon (also known as PKC ε or PRKCE), PKCdelta (also known as PKC δ or PRKCD), PKN1, PKN2 and PRKX | phosphorylated eIF2A at serine 51 [6]: High levels of p-eIF2A(S51) | stress response markers (γH2AX, ATF4) [6]: Strong stress response | cell survival after single-cell dissociation [7]: beneficial | cytoskeleton (actin, myosin immunocytochemistry) [8]: form prominent actin stress fibers at the colony edge | γH2AX immunoreactivity [8]: immunoreactive for γH2AX | Emax [1, 16]: 95.5% | Emax [1, 18]: 96.2% | number of propidium iodide-positive dead cells [9]: higher number of dead cells than Chroman 1 treatment | single EB formation and dead cells [3]: Dead cells surrounded the EBs

Compound: C[C@@H](N)c1ccc(C(=O)Nc2ccnc3[nH]ccc23)cc1 [Y-39983]
Emax [1, 16]: 127% | Emax [1, 18]: 121%

Compound: Cc1sc2c(c1C)C(c1ccc(Cl)cc1)=N[C@@H](CC(=O)NCCCCNC(=O)COc1cccc3c1C(=O)N(C1CCC(=O)NC1=O)C3=O)c1nnc(C)n1-2 (some centres unmarked) [dBETI]
Max (maximum activity value from all tested concentrations) [1, 10]: 62.14% | AC50 [1, 15]: 0.004 µM | Efficacy (activity range between predicted activities at zero and infinite doses, Hill equation) [1, 11]: −67.9

Compound: C/C=C/C(=O)C(C)C1=CC(=O)C2=C(OC34CC[C@H](O)C(C)(C)[C@@H]3CC[C@H](C)C4(C)C2)C1=O (some centres unmarked) [podosporin A]
Max (maximum activity value from all tested concentrations) [1, 10]: 26.17% | Efficacy (activity range between predicted activities at zero and infinite doses, Hill equation) [1, 11]: 0

Compound: c1ccc2c3c([nH]c2c1)CNCC3 [tryptoline]
Emax [1, 16]: 27.9% | AC50 [1, 17]: 0.0009 µM | Emax [1, 18]: -33.1%

Compound: (−)-Indolactam V
Max (maximum activity value from all tested concentrations) [1, 10]: 51.21% | AC50 [1, 15]: 0.833 µM | Efficacy (activity range between predicted activities at zero and infinite doses, Hill equation) [1, 11]: 45.5
